Measurements from ChEMBL document CHEMBL5252521, “Discovery and development of kibdelomycin, a new class of broad-spectrum antibiotics targeting the clinically proven bacterial type II topoisomerase” (Bioorg Med Chem, 2016).
In brackets after ≈: the same amount, converted by molar mass.

Key:
DNA gyrase [1] = molecular target: DNA gyrase (Escherichia coli, UniProt P0AES4+P0AES6); test: Inhibition of Escherichia coli DNA gyrase supercoiling activity; assay type: protein-complex assay
Escherichia coli [2] = test: Antibacterial activity against wild type Escherichia coli; assay type: functional
Staphylococcus aureus [3] = test: Antibacterial activity against wild type Staphylococcus aureus; assay type: functional
DNA gyrase [4] = molecular target: DNA gyrase (Staphylococcus aureus, UniProt P0A0K8+P20831); test: Inhibition of Staphylococcus aureus DNA gyrase supercoiling activity; assay type: protein-complex assay
DNA gyrase (Staphylococcus aureus, UniProt P0A0K8+P20831), sequence (P0A0K8 whole entry): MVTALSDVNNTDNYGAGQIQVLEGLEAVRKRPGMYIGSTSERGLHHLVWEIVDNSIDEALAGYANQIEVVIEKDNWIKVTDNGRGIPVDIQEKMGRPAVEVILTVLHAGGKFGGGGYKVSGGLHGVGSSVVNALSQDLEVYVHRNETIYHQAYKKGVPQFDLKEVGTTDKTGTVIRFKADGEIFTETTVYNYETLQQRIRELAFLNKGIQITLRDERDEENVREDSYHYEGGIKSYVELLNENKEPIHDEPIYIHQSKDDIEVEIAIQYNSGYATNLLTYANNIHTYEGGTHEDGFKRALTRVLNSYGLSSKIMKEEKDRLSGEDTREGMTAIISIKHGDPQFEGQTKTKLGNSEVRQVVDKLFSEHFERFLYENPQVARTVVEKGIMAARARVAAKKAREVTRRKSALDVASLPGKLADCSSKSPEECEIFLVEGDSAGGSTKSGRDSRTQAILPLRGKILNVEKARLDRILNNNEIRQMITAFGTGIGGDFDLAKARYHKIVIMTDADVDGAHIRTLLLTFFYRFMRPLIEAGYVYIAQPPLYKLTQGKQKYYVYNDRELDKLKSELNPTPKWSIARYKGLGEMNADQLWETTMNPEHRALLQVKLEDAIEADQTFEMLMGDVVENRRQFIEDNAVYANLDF
DNA gyrase (Staphylococcus aureus, UniProt P0A0K8+P20831), sequence (P20831 whole entry): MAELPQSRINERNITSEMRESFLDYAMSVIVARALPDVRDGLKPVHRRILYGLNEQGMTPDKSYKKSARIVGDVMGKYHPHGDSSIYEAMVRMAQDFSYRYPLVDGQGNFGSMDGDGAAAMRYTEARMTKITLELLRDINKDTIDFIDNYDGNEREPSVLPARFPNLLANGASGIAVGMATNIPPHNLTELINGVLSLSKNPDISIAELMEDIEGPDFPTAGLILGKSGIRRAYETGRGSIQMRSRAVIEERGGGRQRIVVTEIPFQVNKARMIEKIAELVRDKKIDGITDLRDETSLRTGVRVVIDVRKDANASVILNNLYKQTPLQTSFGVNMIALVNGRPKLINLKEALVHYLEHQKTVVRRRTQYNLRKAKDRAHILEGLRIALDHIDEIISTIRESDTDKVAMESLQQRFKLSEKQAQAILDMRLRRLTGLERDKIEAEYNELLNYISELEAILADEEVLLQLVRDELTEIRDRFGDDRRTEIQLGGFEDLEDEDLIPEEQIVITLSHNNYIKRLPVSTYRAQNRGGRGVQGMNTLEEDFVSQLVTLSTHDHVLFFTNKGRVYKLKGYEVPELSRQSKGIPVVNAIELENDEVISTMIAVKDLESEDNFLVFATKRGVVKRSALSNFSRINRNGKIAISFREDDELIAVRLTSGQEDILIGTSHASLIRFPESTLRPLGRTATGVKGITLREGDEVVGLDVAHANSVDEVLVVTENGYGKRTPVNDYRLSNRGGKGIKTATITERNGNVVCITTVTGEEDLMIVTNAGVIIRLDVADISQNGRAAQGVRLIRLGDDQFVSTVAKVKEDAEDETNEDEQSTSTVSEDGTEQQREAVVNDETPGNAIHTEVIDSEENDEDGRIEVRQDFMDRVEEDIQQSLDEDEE

Pseudomonas aeruginosa [5] = test: Antibacterial activity against wild type Pseudomonas aeruginosa; assay type: functional
[6] = Inhibition of Escherichia coli DNA topoisomerase 4 decatenation activity
Streptococcus pneumoniae [7] = test: Antibacterial activity against wild type Streptococcus pneumoniae in presence of 2.5% lysed horse blood; assay type: functional
Topoisomerase IV = Topoisomerase IV (Staphylococcus aureus, UniProt P0C1S7+P0C1U9); test: Inhibition of Staphylococcus aureus DNA topoisomerase 4 decatenation activity; assay type: protein-complex assay
Topoisomerase IV, sequence (P0C1U9 whole entry): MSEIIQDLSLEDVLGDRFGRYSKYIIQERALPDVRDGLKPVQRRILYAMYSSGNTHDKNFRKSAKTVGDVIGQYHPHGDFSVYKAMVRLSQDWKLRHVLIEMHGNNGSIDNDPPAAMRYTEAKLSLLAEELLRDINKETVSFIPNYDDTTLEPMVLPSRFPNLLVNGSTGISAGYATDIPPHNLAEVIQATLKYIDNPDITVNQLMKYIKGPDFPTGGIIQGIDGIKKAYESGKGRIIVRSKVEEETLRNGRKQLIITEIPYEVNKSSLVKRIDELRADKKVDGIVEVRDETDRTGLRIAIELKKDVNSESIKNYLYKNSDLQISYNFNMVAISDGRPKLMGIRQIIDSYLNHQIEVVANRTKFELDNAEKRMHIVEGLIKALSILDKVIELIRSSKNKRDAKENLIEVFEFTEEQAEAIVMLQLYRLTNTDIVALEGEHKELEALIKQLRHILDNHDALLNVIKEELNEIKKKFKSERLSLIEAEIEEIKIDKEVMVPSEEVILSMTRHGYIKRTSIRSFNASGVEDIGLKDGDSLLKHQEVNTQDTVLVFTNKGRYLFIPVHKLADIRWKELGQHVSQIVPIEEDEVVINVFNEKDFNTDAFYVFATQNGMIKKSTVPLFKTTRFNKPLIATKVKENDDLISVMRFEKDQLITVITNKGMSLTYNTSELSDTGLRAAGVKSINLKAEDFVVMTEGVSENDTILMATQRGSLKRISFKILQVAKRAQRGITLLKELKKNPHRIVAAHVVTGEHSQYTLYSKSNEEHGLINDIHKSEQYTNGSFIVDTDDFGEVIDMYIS
Topoisomerase IV, sequence (P0C1S7 whole entry): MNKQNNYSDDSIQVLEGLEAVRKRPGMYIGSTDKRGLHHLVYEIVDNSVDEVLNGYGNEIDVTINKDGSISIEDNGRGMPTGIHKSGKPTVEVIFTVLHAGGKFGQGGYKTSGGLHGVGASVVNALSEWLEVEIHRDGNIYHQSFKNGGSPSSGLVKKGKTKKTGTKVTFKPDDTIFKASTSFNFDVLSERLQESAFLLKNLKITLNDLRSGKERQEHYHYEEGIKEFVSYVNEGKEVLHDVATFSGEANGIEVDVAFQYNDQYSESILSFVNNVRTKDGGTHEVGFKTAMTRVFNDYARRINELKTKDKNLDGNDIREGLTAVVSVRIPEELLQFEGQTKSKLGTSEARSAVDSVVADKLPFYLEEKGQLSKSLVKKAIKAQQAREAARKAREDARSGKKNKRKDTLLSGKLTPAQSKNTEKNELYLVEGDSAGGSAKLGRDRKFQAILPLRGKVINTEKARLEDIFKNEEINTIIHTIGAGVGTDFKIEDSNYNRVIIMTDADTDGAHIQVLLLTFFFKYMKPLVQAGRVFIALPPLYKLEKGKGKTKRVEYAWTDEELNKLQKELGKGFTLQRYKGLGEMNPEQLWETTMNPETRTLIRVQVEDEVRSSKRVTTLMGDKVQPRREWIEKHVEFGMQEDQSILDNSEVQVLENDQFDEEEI

Staphylococcus aureus [8] = test: Antibacterial activity against wild type Staphylococcus aureus incubated for 20 hrs by two-fold serial dilution method; assay type: functional
Enterococcus faecium = test: Antibacterial activity against vancomycin-resistant Enterococcus faecium incubated for 20 hrs by two-fold serial dilution method; assay type: functional
Haemophilus influenzae = test: Antibacterial activity against wild type Haemophilus influenzae incubated for 20 hrs by two-fold serial dilution method; assay type: functional
Pseudomonas aeruginosa [9] = test: Antibacterial activity against wild type Pseudomonas aeruginosa incubated for 20 hrs by two-fold serial dilution method; assay type: functional
Acinetobacter baumannii = test: Antibacterial activity against wild type Acinetobacter baumannii incubated for 20 hrs by two-fold serial dilution method; assay type: functional
Staphylococcus aureus [10] = test: Antibacterial activity against methicillin-resistant Staphylococcus aureus incubated for 20 hrs by two-fold serial dilution method; assay type: functional
Escherichia coli [11] = test: Antibacterial activity against wild type Escherichia coli incubated for 20 hrs by two-fold serial dilution method; assay type: functional
Moraxella catarrhalis = test: Antibacterial activity against wild type Moraxella catarrhalis incubated for 20 hrs by two-fold serial dilution method; assay type: functional
Staphylococcus aureus [12] = test: Antibacterial activity against wild type Staphylococcus aureus incubated for 20 hrs in presence of 50% of human serum by two-fold serial dilution method; assay type: functional
Enterococcus faecalis = test: Antibacterial activity against wild type Enterococcus faecalis incubated for 20 hrs by two-fold serial dilution method; assay type: functional
[13] = Inhibition of Escherichia coli DNA topoisomerase 4 ATPase activity
Streptococcus pneumoniae [14] = test: Antibacterial activity against wild type Streptococcus pneumoniae incubated for 20 hrs in presence of 2.5% lysed horse blood by two-fold serial dilution method; assay type: functional

Compound	IC50 (DNA gyrase [1]) [µM]	MIC (Escherichia coli [2]) [µg/mL]	MIC (Staphylococcus aureus [3]) [µg/mL]	IC50 (DNA gyrase [4]) [µM]	MIC (Pseudomonas aeruginosa [5]) [µg/mL]	IC50 [6] [µM]	MIC (Streptococcus pneumoniae [7]) [µg/mL]	IC50 (Topoisomerase IV) [µM]	MIC (Staphylococcus aureus [8]) [µg/mL]	MIC (Enterococcus faecium) [µg/mL]	MIC (Haemophilus influenzae) [µg/mL]	MIC (Pseudomonas aeruginosa [9]) [µg/mL]	MIC (Acinetobacter baumannii) [µg/mL]	MIC (Staphylococcus aureus [10]) [µg/mL]	MIC (Escherichia coli [11]) [µg/mL]	MIC (Moraxella catarrhalis) [µg/mL]	MIC (Staphylococcus aureus [12]) [µg/mL]	MIC (Enterococcus faecalis) [µg/mL]	IC50 [13] [µM]	MIC (Streptococcus pneumoniae [14]) [µg/mL]
Cc1c(O)cc(O)c2c1C(=O)OC[C@H](NC(=O)[C@@H]1[C@H](O)CCN1C(=O)[C@@H](N)CO)C(=O)N[C@H](C(=O)N[C@@H](C)C(=O)O)CSC2	0.05	> 128	> 128																	
CO[C@@H]1[C@@H](OC(=O)c2ccc(C)[nH]2)[C@@H](O)[C@H](Oc2ccc3c(O)c(NC(=O)c4c[nH]c(C(=O)Nc5c(O)c6ccc(O[C@@H]7OC(C)(C)[C@H](OC)[C@@H](OC(=O)c8ccc(C)[nH]8)[C@H]7O)c(C)c6oc5=O)c4C)c(=O)oc3c2C)OC1(C)C	0.03	6.25 (≈ 5.63 µM)	0.0012 (≈ 0.00108 µM)	0.006	12.5 (≈ 11.3 µM)	5	0.78	100												
CO[C@@H]1[C@@H](OC(=O)c2ccc(C)[nH]2)[C@@H](O)[C@H](Oc2ccc3c(O)c(NC(=O)c4ccc(O)c(CC=C(C)C)c4)c(=O)oc3c2Cl)OC1(C)C [CHLOROBIOCIN]			< 0.06			3	2	10												
C[C@H]1COc2c(N3CCN(C)CC3)c(F)cc3c(=O)c(C(=O)O)cn1c23.C[C@H]1COc2c(N3CCN(C)CC3)c(F)cc3c(=O)c(C(=O)O)cn1c23.O [LEVOFLOXACIN]									0.125	4	< 0.015	0.5	0.125	32	0.031	1				
CO[C@@H]1[C@@H](OC(N)=O)[C@@H](O)[C@H](Oc2ccc3c(O)c(NC(=O)c4ccc(O)c(CC=C(C)C)c4)c(=O)oc3c2C)OC1(C)C [NOVOBIOCIN]						10		35	0.25 (≈ 0.408 µM)		0.12 (≈ 0.196 µM)	100 (≈ 163 µM)		0.06 (≈ 0.0979 µM)	> 32	> 32	16	32 (≈ 52.2 µM)	0.45	1
